# Test results: US20190112598A1, “Methods and Systems of Cell-Free Enzyme Discovery and Optimization” (President and Fellows of Harvard College, priority 2016, published 2019)
# Molecular target: T1, AcuR (Cereibacter sphaeroides, UniProt Q3J6K8)
# T1 construct: made in house; host or cells: cell-free expression reaction (NEB P/N E6800 components A and B) from T7-promoter linear dsDNA, made in the assay well itself
# T1 sequence (Q3J6K8 1-219): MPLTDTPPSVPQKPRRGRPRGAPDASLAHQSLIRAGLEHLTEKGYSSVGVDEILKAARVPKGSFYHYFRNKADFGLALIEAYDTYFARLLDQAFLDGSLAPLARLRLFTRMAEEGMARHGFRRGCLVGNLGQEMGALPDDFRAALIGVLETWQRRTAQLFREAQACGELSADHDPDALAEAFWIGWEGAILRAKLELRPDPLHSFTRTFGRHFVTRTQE
# Experiment: Cell-free observation of acrylate: AcuR sensor with GFP reporter in a cell-free expression reaction
# Format: biochemical
# Conditions: 0.1 mM sodium acrylate; 37° C.; 395 nm excitation; measured every two minutes for 4 hours; sample without acrylate rose to 260; FIG. 1
# Source text: DNA encoded biological acrylate sensor was used to detect acrylate. AcuR is a transcription factor whose activity is dependent on the concentration of acrylate. A linear dsDNA encoding the acrylate sensor AcuR is combined with a reporter circular plasmid which contained a GFP protein controlled by a promoter regulated by AcuR. Thus, GFP fluorescence is related to the amount of acrylate in the sample.
# In order to obtain an adequate signal-to-noise ratio (SNR), a T7 promoter was used to drive the expression of the sensor to achieve high expression of the sensor protein and ensure outnumbering of the number of reporter promoters, and well controlled expression. Additionally, an E. coli RNAP promoter was used to drive expression on the reporter, as it reduces the level of background signal, and provides with a more accurate control by AcuR.
# Linear DNA amplification: Linear dsDNA containing AcuR was prepared by PCR amplification using primers which contain a T7 promoter, and ribosome binding site (RBS). […]
# The samples were incubated at 37° C., and the fluorescence signal (395 nm excitation, 470 nm […]) of the sample was measured every two minutes for 4 hours.
structure (smiles),measurement,value
C=CC(=O)O [acrylate],increase of fluorescence (GFP reporter signal),750 arbitrary units
